Source: US7173037B2, “Carbamate-substituted pyrazolopyridines” (Bayer HealthCare AG, priority 2002, dated 2007)
Read-outs that look alike come from different tables or passages of the source.

Assays:
[1] = system: rabbit aorta rings; experiment: Vasorelaxant effect in vitro (phenylephrine-contracted aorta rings); assay type: cell-based; settings: Oryctolagus cuniculus, phenylephrine contraction, read-out: IC50 (concentration necessary to reduce the height of the contraction by 50%)
Protocol: Rabbits are stunned by a blow to the back of the neck and are exsanguinated. The aorta is removed, freed of adherent tissue and divided into rings 1.5 mm wide, which are put singly under tension in 5 ml organ baths containing carbogen-gassed Krebs-Henseleit solution at 37° C. with the following composition (mM): NaCl:119; KCl:4.8; CaCl2×2H2O:1; MgSO4×7H2O:1.4; KH2PO4:1.2; NaHCO3:25; Glucose:10. The force of contraction is detected with Statham UC2 cells, amplified and digitized via A/D converters (DAS-1802 HC, Keithley Instruments Munich) and recorded in parallel on chart recorders. A contraction is generated by adding phenylephrine to the bath cumulatively in increasing concentration. After several control cycles, the substance to be investigated is investigated in each further run in increasing dosage in each case, and the height of the contraction is compared with the height of the contraction reached in the last preceding run. The concentration necessary to reduce the height of the control value by 50% (IC50) is calculated from this. The standard application volume is 5 μl, and the DMSO content in the bath solution corresponds to 0.1%.

[2] = system: CYP1A2; experiment: Induction of cytochrome P450 enzymes in human liver cell cultures, CYP1A2; assay type: in vitro ADME; settings: human hepatocyte cultures, control = 1.0
[3] = system: rabbit penis erection; experiment: Rabbit model (erection, length of the protruding penis); assay type: in vivo, chinchilla rabbits; settings: oral administration, with simultaneous 0.2 mg/kg i.v. sodium nitroprusside SNP
Protocol: Adult male chinchilla rabbits weighing 3–5 kg are adapted to being kept singly for several days after delivery. They have free access to water and can take feed for two hours a day. The animals are kept in a 10/14-hour day/night rhythm (light on from 8.00 h), and the room temperature is 22–24° C.
Three to six animals are used in each treatment group and are weighed immediately before the start of the test. For the i.v. administration, the substances are dissolved in Transcutol (GATTEFOSSE GmbH) and diluted in the ratio 3/7 with a 20% strength Cremophor solution (Cremophor (BASF), water). A volume of 0.5 ml/kg is injected into the ear vein. Water-soluble substances are injected in 0.9% sodium chloride solution.
For oral administration, the test substances are dissolved in a 6:10:9.69 glycerol:water:polyethylene glycol mixture and administered by gavage in a volume of 1 ml/kg.
Under resting conditions, the rabbit penis is invisible in the pubic region and is completely covered by the penis skin. The erection is assessed by measuring the length of the protruding penis with a slide calliper. […] The animals are for this purpose removed from the cage each time, held firmly by the neck fur and the rear paws, turned on their backs and measured. […]

[4] = system: CYP3A4; settings: human, hepatocytes
[5] = system: CYP2C19; settings: human, hepatocytes, 5 days
[6] = set-up: species or system rats; settings: rat, in vivo, po
Protocol: The substance to be investigated is administered intravenously as solution to animals (e.g. mice, rats, dogs), and oral administration takes place as solution or suspension by gavage. After administration of the substance, blood is taken from the animals at fixed times and is heparinized, and then plasma is obtained therefrom by centrifugation. The substance is quantified analytically in the plasma by LC/MS/MS. The plasma concentration/time courses found in this way are used to calculate the pharmacokinetic parameters by means of a validated pharmacokinetic computer programme.
Inhibition of Cytochrome P450 Enzymes

[7] = system: CYP2B6; settings: human, hepatocytes, 5 days
[8] = system: CYP2C19; experiment: Induction of cytochrome P450 enzymes in human liver cell cultures, CYP2C19; settings: human hepatocyte cultures, 2000 μM, control = 1.0
[9] = system: CYP2B6; experiment: Induction of cytochrome P450 enzymes in human liver cell cultures, CYP2B6; settings: human hepatocyte cultures, 2000 μM, control = 1.0

COC(=O)N(C)c1cnc(-c2nn(Cc3ccccc3F)c3ncccc23)nc1N [Example 1, Methyl 4-amino-2-[1-(2-fluorobenzyl)-1H-pyrazolo[3,4-b]pyridin-3-yl]-5-pyrimidinyl(methyl)carbamate]
IC50 [1]: 670 nM

COC(=O)N(C)c1c(N)nc(-c2nn(Cc3ccccc3F)c3ncccc23)nc1N [Example 8, Methyl 4,6-diamino-2-[1-(2-fluorobenzyl)-1H-pyrazolo[3,4-b]pyridin-3-yl]-5-pyrimidinyl(methyl)carbamate]
Inductive effect on CYP1A2 activity (standardized) ([2]; 0.01 μg/ml): 0.76 | Inductive effect on CYP1A2 activity (standardized) ([2]; 0.1 μg/ml): 0.70 | Inductive effect on CYP1A2 activity (standardized) ([2]; 1.0 μg/ml): 0.90 | Inductive effect on CYP1A2 activity (standardized) ([2]; 10 μg/ml): 1.38 | minimal effective dose [3]: 0.03 mg/kg | Inductive effect on CYP3A4 activity (standardized) ([4]; 5 days, 0.01 μg/ml): 1.37 | Inductive effect on CYP3A4 activity (standardized) ([4]; 5 days, 0.1 μg/ml): 1.60 | Inductive effect on CYP3A4 activity (standardized) ([4]; 5 days, 1 μg/ml): 1.51 | Inductive effect on CYP3A4 activity (standardized) ([4]; 5 days, 10 μg/ml): 3.47 | IC50 [1]: 500 nM | Inductive effect on CYP2C19 activity (standardized) ([5]; 0.01 μg/ml): 1.30 | Inductive effect on CYP2C19 activity (standardized) ([5]; 0.1 μg/ml): 1.30 | Inductive effect on CYP2C19 activity (standardized) ([5]; 1 μg/ml): 1.12 | Inductive effect on CYP2C19 activity (standardized) ([5]; 10 μg/ml): 1.97 | AUCstand ([6]; 0.3 mg/kg): 0.326 kg·h/L | AUCstand ([6]; 1 mg/kg): 0.548 kg·h/L | Inductive effect on CYP2B6 activity (standardized) ([7]; 0.01 μg/ml): 1.92 | Inductive effect on CYP2B6 activity (standardized) ([7]; 0.1 μg/ml): 1.62 | Inductive effect on CYP2B6 activity (standardized) ([7]; 1 μg/ml): 1.85 | Inductive effect on CYP2B6 activity (standardized) ([7]; 10 μg/ml): 2.54

COc1ccc2[nH]c([S+]([O-])Cc3ncc(C)c(OC)c3C)nc2c1 (stereo not drawn) [OME, omeprazole, reference compound]
Inductive effect on CYP1A2 activity (standardized) ([2]; 100 μM): 28.57 | Inductive effect on CYP3A4 activity (standardized) ([4]; 5 days, 100 μM): 1.45 | Inductive effect on CYP2C19 activity (standardized) ([5]; 100 μM): 1.61 | Inductive effect on CYP2B6 activity (standardized) ([7]; 100 μM): 1.54

CCC1(c2ccccc2)C(=O)NC(=O)NC1=O [PB, phenobarbital]
Inductive effect on CYP2C19 activity (standardized) [8]: 4.00 | Inductive effect on CYP2B6 activity (standardized) [9]: 14.69 | Inductive effect on CYP3A4 activity (standardized) [4]: 6.70

CO[C@H]1/C=C/O[C@@]2(C)Oc3c(C)c(O)c4c(O)c(c(/C=N/N5CCN(C)CC5)c(O)c4c3C2=O)NC(=O)/C(C)=C\C=C\[C@H](C)[C@H](O)[C@@H](C)[C@@H](O)[C@@H](C)[C@H](OC(C)=O)[C@@H]1C [RIF, rifampicin, reference compound]
Inductive effect on CYP2C19 activity (standardized) ([5]; 50 μM): 15.21 | Inductive effect on CYP2B6 activity (standardized) ([7]; 50 μM): 5.15
